Measured values published in patent US20050112075A1, “Reduction of hair growth” (priority 2003, published 2005).

System: Human hair follicles in growth phase (anagen)
Experiment: Human hair follicle growth assay
Assay type: cell-based
Details: for Hair follicle length increase (mm), Treated: day 0 to day 7 in culture
Protocol: Human hair Follicle Growth Assay:
Human hair follicles in growth phase (anagen) were isolated from face-lift tissue (obtained from plastic surgeons) under dissecting scope using a scalpel and watchmakers forceps. The skin was sliced into thin strips exposing 2-3 rows of follicles that could readily be dissected. Follicles were placed into 0.5 ml William's E medium (Life Technologies, Gaithersburg, Md.) supplemented with 2 mM L-glutamine, 10 μg/ml insulin, 10 ng/ml hydrocortisone, 100 units of penicillin, 0.1 mg/ml streptomycin and 0.25 μg/ml amphotericin B. The follicles were incubated in 24-well plates (1 follicle/well) at 37° C. in an atmosphere of 5% CO2 and 95% air. Compounds are dissolved into dimethyl sulfoxide as 100-fold stock solution. The control hair follicles were treated with dimethyl sulfoxide without prostaglandin. The follicles were photographed in the 24-well plates under the dissecting scope at a power of 10×. Typically, image recordings were made on day 0 (day follicles were placed in culture), and again on day 7. The length of hair follicle was assessed using an image analysis software system. The growth of hair fiber was calculated by the subtracting the follicle length on day 0 from that determined on day 7.

[1] = dose 50 μM, vs dimethyl sulfoxide control
[2] = dose 1 μM, dose-dependence study
[3] = dose 5 μM, dose-dependence study
[4] = dose 10 μM, dose-dependence study
[5] = dose 30 μM, vs dimethyl sulfoxide control

Compound | Hair follicle length increase (mm), Treated (dose 50 μM) [mm] | % Reduction of human hair follicle growth [1] [%] | % Reduction of human hair follicle growth [2] [%] | Growth of follicle (mm), Treated [2] [mm] | % Reduction of human hair follicle growth [3] [%] | Growth of follicle (mm), Treated [3] [mm] | % Reduction of human hair follicle growth [4] [%] | Growth of follicle (mm), Treated [4] [mm] | Hair follicle length increase (mm), Treated (dose 30 μM) [mm] | % Reduction of human hair follicle growth [5] [%] | other results
CCCCCC=CC=C1CCC(=O)C1C/C=C\CCCC(=O)O (centres unmarked) [9,10-Dihydro-15-deoxy-^Δ12,14-PGJ2, 9,10-dihydro-15-deoxy-Δ^12,14-PGJ2] | 0.02 ± 0.03 | 98.8 ± 1.9 |  |  |  |  |  |  |  |  | 
C=C1C[C@H](O)[C@H](C/C=C\CCCC(=O)O)[C@H]1/C=C/[C@@H](O)CCCCC [11-Deoxy-11-methylene PGD2] | 1.11 ± 0.14 | 36.9 ± 8.0 |  |  |  |  |  |  |  |  | 
CCCCC[C@@](C)(O)/C=C/[C@H]1C(=O)C[C@H](O)[C@@H]1C/C=C\CCCC(=O)O [15(R)-15-Methyl PGD2] | 0.04 ± 0.05 | 97.5 ± 3.1 |  |  |  |  |  |  |  |  | 
CCCCC[C@](C)(O)/C=C/[C@H]1C(=O)C[C@H](O)[C@@H]1C/C=C\CCCC(=O)O [15(S)-15-Methyl PGD2] |  |  |  |  |  |  |  |  |  |  | Hair follicle length increase (mm), Treated (dose 100 μM): 0.08 ± 0.06 mm; % Reduction of human hair follicle growth (dose 100 μM, vs dimethyl sulfoxide control): 92.7 ± 5.5%
CCCCC/C=C/C=C1/C(=O)C[C@H](O)[C@@H]1C/C=C\CCCC(=O)O [15-Deoxy-Δ^12,14-PGD2] | 0.10 ± 0.08 | 94.3 ± 4.5 |  |  |  |  |  |  |  |  | 
CCCCC/C=C/C=C1/C(=O)C=C[C@@H]1C/C=C\CCCC(=O)O [15-Deoxy-Δ^12,14-PGJ2] |  |  | 0 | 1.42 ± 0.37 | 34.8 | 0.21 ± 0.13 | 94.3 | 0.08 ± 0.07 | 0.10 ± 0.09 | 94.7 ± 5.0 | 
CCCCC(C)(C)[C@H](O)/C=C/[C@H]1C(=O)C[C@H](O)[C@@H]1C/C=C\CCCC(=O)O [16,16-Dimethyl PGD2] | 0.10 ± 0.05 | 94.3 ± 2.8 |  |  |  |  |  |  |  |  | 
O=C(O)CCC/C=C\C[C@H]1[C@@H](O)CC(=O)[C@@H]1/C=C/[C@@H](O)CCc1ccccc1 [17-Phenyl trinor PGD2] | 0.10 ± 0.12 | 93.8 ± 7.4 |  |  |  |  |  |  |  |  | 
CCCCC[C@H](O)/C=C/[C@H]1C(=O)C[C@H](O)[C@@H]1C/C=C\CCCC(=O)O [PGD2, prostaglandin D2] |  |  | 4.4 | 1.51 ± 0.28 | 12.7 | 1.38 ± 0.30 | 38.0 | 0.98 ± 0.32 | 0.24 ± 0.10 | 87.3 ± 5.0 | Hair growth inhibition profile (dose dependence, in words): dose dependent; Reduction of human hair follicle growth (in words): significant reduction of human hair follicle growth
CCCCC[C@H](O)/C=C/[C@H]1C(=O)C=C[C@@H]1C/C=C\CCCC(=O)O [PGJ2] |  |  | 9.5 | 1.43 ± 0.34 | 34.8 | 1.03 ± 0.35 | 68.4 | 0.50 ± 0.29 | 0.16 ± 0.25 | 91.5 ± 13 | Hair growth inhibition profile (dose dependence, in words): dose dependent; Reduction of human hair follicle growth (in words): reduce hair growth
CCCCC[C@H](O)C/C=C1/C(=O)C=C[C@@H]1C/C=C\CCCC(=O)O [Δ^12-PGJ2] |  |  | 0.7 | 1.40 ± 0.44 | 10.6 | 1.26 ± 0.38 | 77.3 | 0.32 ± 0.15 | 0.29 ± 0.46 | 84.6 ± 24 | 
